Results: ChEMBL document CHEMBL1136639, “Synthesis and binding affinity of neuropeptide Y at opiate receptors” (Bioorg Med Chem Lett, 2003)
Activity calls are given as the source filed them. The calls are words filed in the database; no cut-off is given here. Starred links: 1 amine or outer side, 2 acyl side, 3 side chain; linkers in the order of their positions; H or OH if unused. Non-standard residues stand in square brackets, D forms with d. Residues, ends and D or L forms follow the SMILES beside them. X1 = NCCCC[C@H](C(=O)[C@H](CO)N[*:1])C(=O)[*:2]

How the values were obtained:
Mu-type opioid receptor [1] = target: T1, Mu-type opioid receptor (Homo sapiens, UniProt P35372); assay: Inhibitory activity against non-selective opiate receptor
Mu-type opioid receptor [2] = target: T1, Mu-type opioid receptor; assay: Binding affinity towards non-selective opiate receptor
Mu-type opioid receptor [3] = target: T1, Mu-type opioid receptor; assay: Binding affinity towards non-selective opiate receptor; NA=Not active
Mu-type opioid receptor [4] = target: T1, Mu-type opioid receptor; assay: (§1) Inhibitory activity against non-selective opiate receptor; NA=Not active
Mu-type opioid receptor [5] = target: T1, Mu-type opioid receptor; assay: as §1; remark: listed apart in the source

T1 sequence (P35372 whole entry): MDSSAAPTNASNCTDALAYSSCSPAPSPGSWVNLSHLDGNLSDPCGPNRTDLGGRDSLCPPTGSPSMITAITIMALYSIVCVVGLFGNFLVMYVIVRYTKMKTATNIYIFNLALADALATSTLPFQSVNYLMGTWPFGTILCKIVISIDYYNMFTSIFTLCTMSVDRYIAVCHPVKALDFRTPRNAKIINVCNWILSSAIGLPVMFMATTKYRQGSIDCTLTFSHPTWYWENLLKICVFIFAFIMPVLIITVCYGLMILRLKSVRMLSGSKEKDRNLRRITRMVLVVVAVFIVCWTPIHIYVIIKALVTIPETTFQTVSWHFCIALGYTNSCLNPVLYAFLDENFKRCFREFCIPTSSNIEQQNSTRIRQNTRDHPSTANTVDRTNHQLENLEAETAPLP

Compound	IC50 (Mu-type opioid receptor [1])	Ki (Mu-type opioid receptor [2])	Ki (Mu-type opioid receptor [3])	NA (Mu-type opioid receptor [4])	IC50 (Mu-type opioid receptor [5])
NCCCC[C@H](C(=O)[C@H](CO)NC(=O)[C@@H]1CCCN1C(=O)[C@@H](N)Cc1ccc(O)cc1)C(=O)N1CCC[C@H]1C(=O)N[C@@H](CC(=O)O)C(=O)O (H-YP[X1]PD-OH)	1.8 µM	1 µM			
H-INLITRQRY-OH			Not Active	inactive	
CC[C@H](C)[C@H](NC(=O)[C@H](Cc1ccc(O)cc1)NC(=O)[C@H](Cc1c[nH]cn1)NC(=O)[C@H](CCCN=C(N)N)NC(=O)[C@H](CC(C)C)NC(=O)[C@H](C)NC(=O)[C@@H](N)CO)C(=O)N[C@@H](CC(N)=O)C(=O)N[C@@H](CC(C)C)C(=O)N[C@H](C(=O)N[C@H](C(=O)N[C@@H](CCCN=C(N)N)C(=O)N[C@@H](CCC(N)=O)C(=O)N[C@@H](CCCN=C(N)N)C(=O)N[C@@H](Cc1ccc(O)cc1)C(=O)O)[C@@H](C)O)[C@@H](C)CC	10 µM	5.1 µM			
NC(=O)[C@@H]1CCCN1C(=O)[C@H](Cc1ccccc1)NC(=O)[C@@H]1CCCN1C(=O)[C@@H](N)Cc1ccc(O)cc1 [MORPHICEPTIN] (H-YPFP-NH2)	0.32 µM	0.15 µM			
H-FPSKP-OH	15 µM	7.5 µM			
NCCCC[C@H](C(=O)[C@H](CO)NC(=O)[C@@H]1CCCN1C(=O)[C@@H](N)Cc1ccc(O)cc1)C(=O)N1CCC[C@H]1C(=O)N[C@@H](CC(=O)O)C(=O)N[C@@H](CC(N)=O)C(=O)N1CCC[C@H]1C(=O)O (H-YP[X1]PDNP-OH)			Not Active		Not Active
